Literature values, collected in patent publication US5827682A, “Two-step conversion of vegetable protein isoflavone conjugates to aglucones” (Protein Technologies International, Inc., priority 1996, dated 1998).

Columns and labels:
[1] = system: human prostate cancer cells; settings: title of cited article
[2] = system: Epidermal Growth Factor Receptor; settings: title of cited article
[3] = system: human breast cancer cells; settings: title of cited article; independence from estrogen receptors and the multi-drug resistance gene

SMILES	Inhibition of the growth of human prostate cancer cells [1]	Inhibition of epidermal growth factor receptor tyrosine autophosphorylation [2]	Inhibition of the growth of human breast cancer cells [3]
COc1ccc(-c2coc3cc(O)cc(O)c3c2=O)cc1 [Biochanin A, biochanin A]	Inhibit the Growth of Human Prostate Cancer Cells	not Epidermal Growth Factor Receptor Tyrosine Autophosphorylation	
O=c1c(-c2ccc(O)cc2)coc2cc(O)cc(O)c12 [Genistein, genistein]	Inhibit the Growth of Human Prostate Cancer Cells	not Epidermal Growth Factor Receptor Tyrosine Autophosphorylation	Inhibition of the Growth of Human Breast Cancer Cells
